These results are taken from PMC2966298 (Journal of medicinal chemistry, 2010).

The target of series [1] is T1, Human reticulocyte 15-lipoxygenase-1 (15-hLO-1) (Homo sapiens, UniProt P16050).
T1 sequence (P16050 1-662): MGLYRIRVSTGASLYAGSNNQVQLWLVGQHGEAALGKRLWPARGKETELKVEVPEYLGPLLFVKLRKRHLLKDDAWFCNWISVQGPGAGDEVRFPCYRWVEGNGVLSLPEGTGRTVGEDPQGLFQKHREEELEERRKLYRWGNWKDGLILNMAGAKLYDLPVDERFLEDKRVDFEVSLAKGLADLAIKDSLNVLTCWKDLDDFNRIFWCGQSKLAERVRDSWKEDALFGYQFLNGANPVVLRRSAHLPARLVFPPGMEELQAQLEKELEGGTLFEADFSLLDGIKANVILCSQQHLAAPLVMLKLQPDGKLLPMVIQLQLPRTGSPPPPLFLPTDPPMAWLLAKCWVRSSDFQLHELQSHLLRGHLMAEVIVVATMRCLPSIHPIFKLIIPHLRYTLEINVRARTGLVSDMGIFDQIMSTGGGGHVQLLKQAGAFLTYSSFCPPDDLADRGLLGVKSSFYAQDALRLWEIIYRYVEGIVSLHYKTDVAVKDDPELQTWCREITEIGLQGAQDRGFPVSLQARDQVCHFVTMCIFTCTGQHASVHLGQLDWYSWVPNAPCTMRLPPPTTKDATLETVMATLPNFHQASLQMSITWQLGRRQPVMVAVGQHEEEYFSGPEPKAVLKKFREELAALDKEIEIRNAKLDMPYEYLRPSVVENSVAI
The series can be described thus: Lipoxygenase UV-Vis assay. To be noted: for fold loss in activity against 15-hLO-1 relative to lead 5: compared with compound 5 (19 nM).

In series [2] the target is T2, 15-hLO-1 (Homo sapiens, UniProt P16050).
T2 sequence (P16050 1-662): T1 sequence (P16050 1-662)
The series can be described thus: Steady-state inhibition kinetics. To be noted: replot of 1/Vmax vs inhibitor; AA substrate, 0.01% Triton X-100.

Series [3] has as its target T2, 15-hLO-1. The series can be described thus: Reversibility of inhibition. Type of series: biochemical. To be noted: 50 μM inhibitor, 10 min incubation, then 2 h dialysis.
Series [4] in a line: Solubility as noted during biochemical characterization. To be noted: noted where Ki^app could not be obtained accurately. Type of series: physicochemical.
In series [5] the target is T2, 15-hLO-1. To be noted: cited from earlier work.

“Also recorded” adds a separate entry of the source. A value given as a limit tells only on which side of the number the result lay.

Regarding `O=C(OCC#CCSc1nnc(-c2cccc3ccccc23)o1)c1c[nH]cn1` [Analogue 16], the “fold loss in activity against 15-hLO-1 relative to lead 5” value in series [1] is “approximately 70 fold”. Besides, at 15-hLO-1 [2], the “Ki’ (dissociation from the secondary site)” value stood at 8100 ± 900 nM.

As to `O=C(OCC#CCSc1nnc(-c2cccc3ccccc23)o1)c1ccccc1F` [Analogue 25], the reversibility of inhibition entry on 15-hLO-1 [3] was “reversible”.

The term IC50 denotes the concentration needed to halve the response being measured. `O=C(OCC#CCSc1nnc(-c2ccc(F)cc2)o1)c1ccc(F)cc1` [Analogue 47] registered an IC50 in series [1] of less than 10 nM.

As for `O=C(OCC#CCSc1nnc(-c2cc3ccccc3cc2O)o1)c1ccc(F)cc1` [Analogue 53], the “solubility (in words)” value in series [4] is on record as “low solubility”.

For the compound `O=C(NCC#CCSc1nnc(-c2cccc3ccccc23)o1)c1cccs1` [Analogue 56], in series [1], the midpoint of inhibition, the IC50, lay at 2000 nM and the “fold loss in activity against 15-hLO-1 relative to lead 5” value is recorded as 100 fold.

For `O=C(OCC#CCSc1nnc(-c2cccc3ccccc23)s1)c1cccs1` [Analogue 58], the “solubility (in words)” value in series [4] is listed as “noticeably less soluble; also recorded: low solubility”.

In series [1], `O=C(OCC#CCNc1nnc(-c2cccc3ccccc23)o1)c1cccs1` [Analogue 60] came in with an IC50 of 1300 nM.

In turn, `O=C(OCc1ccc(CSc2nnc(-c3cccc4ccccc34)o2)cc1)c1ccc(F)cc1` [Analogue 62] had an IC50 in series [1] of more than 100000 nM.

In the case of `Fc1ccc(COCC#CCSc2nnc(-c3cccc4ccccc34)o2)cc1` [Analogue 66], in series [1], the “activity against 15-hLO-1 (in words)” value is on record as “complete loss in activity”.

Turning to `O=C(CCC#CCSc1nnc(-c2cccc3ccccc23)o1)c1ccccc1` [Analogue 67], the “solubility (in words)” value in series [4] was “reduced solubility; also recorded: low solubility”.

On to `COc1ccc(-c2oc3cc(OC)c(OC)c(OC)c3c(=O)c2OC)cc1OC` [hexamethoxyflavone], for which the IC50 on 15-hLO-1 [5] was 50000 nM.
